{"source": "patent US12209089B1", "about": "“Pyrimido[1′,6′: 1,5]pyrazolo[4,3-c] [2,7] naphthyridines as CK2 inhibitors” (KING FAISAL UNIVERSITY, priority 2024, dated 2025)", "key": {"[1]": {"molecular_target": "T1, recombinant human CK2 (holoenzyme) (Homo sapiens, UniProt P68400)", "T1 construct": "purchased Millipore", "T1 sequence (P68400 whole entry)": "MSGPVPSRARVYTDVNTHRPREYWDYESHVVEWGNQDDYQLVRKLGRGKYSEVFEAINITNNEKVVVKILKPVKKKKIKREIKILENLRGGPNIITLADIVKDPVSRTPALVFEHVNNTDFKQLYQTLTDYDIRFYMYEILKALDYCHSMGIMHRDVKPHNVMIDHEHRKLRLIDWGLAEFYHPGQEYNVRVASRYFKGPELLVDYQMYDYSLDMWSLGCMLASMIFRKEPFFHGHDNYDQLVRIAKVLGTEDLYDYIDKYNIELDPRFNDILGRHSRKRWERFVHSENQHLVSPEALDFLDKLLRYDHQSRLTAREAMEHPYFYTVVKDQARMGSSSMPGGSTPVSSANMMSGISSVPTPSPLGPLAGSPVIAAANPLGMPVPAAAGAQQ", "T1 sequence (P67870 whole entry partner)": "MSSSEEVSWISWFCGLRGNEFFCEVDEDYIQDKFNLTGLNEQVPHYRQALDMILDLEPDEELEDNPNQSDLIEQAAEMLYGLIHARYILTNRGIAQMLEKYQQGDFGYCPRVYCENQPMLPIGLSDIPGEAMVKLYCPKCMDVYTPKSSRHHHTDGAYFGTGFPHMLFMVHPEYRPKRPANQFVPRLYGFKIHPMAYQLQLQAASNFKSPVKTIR", "test": "CK2 Kinase Assay (33P-ATP, filter plate)", "assay_type": "biochemical", "settings": "recombinant human CK2, 10 min at 30° C., eight concentrations; read-out: protein kinase CK2 IC50", "method": "CK2 Kinase Assay was conducted using the protocol as described in Pierre F. et al; J. Med. Chem. 2011, 54, 635-654. The tested compounds in aqueous solution were added at a volume of 10 μL to a reaction mixture comprising 10 μL of assay dilution buffer (ADB; 20 mM MOPS, pH 7.2, 25 mM B-glycerol phosphate, 5 mM EGTA, 1 mM sodium orthovanadate, and 1 mM dithiothreitol), 10 μL of substrate peptide (RRRDDDSDDD, dissolved in ADB at a concentration of 1 mM), 10 μL of recombinant human CK2 (RRBB-holoenzyme, 25 ng dissolved in ADB; Millipore). Reactions were initiated by the addition of 10 μL of ATP solution (90% 75 mMMgCl2, 75 μM ATP (final ATP concentration: […]) dissolved in ADB; 10% [y-33P]ATP (stock 1mCi/100 μL; 3000 Ci/mmol (Perkin-Elmer) and maintained for 10 min at 30° C. The reactions were quenched with 100 μL of 0.75% phosphoric acid and then transferred to and filtered through a phosphor cellulose filter plate (Millipore). After washing each well five times with 0.75% phosphoric acid, the plate was dried under vacuum for 5 min and, following the addition of 15 μL of scintillation fluid to each well, the residual radioactivity was measured using a Wallac […] counter. The IC50 values were derived from eight concentrations of test inhibitors."}, "[2]": {"tested_on": "H1299 (lung)", "test": "In vitro cytotoxic activity (MTT) assay, H1299", "assay_type": "cell-based", "settings": "Homo sapiens, NCI-H1299; H1299 (lung) cells, 96 hours exposure; read-out: Cytotoxicity activity IC50 (50% inhibition of cell proliferation)", "method": "(§1) Compounds 1-16 were screened for their in vitro cytotoxic activity utilizing a 3-(4,5-dimethyl-thiazol-2-yl)-2,5-diphenyltetrazolium bromide (MTT) assay against selected cancer human cell lines consisting of PC3 (prostate), HCT116 (colon), A375 (melanoma), H1299 (lung), MIAPaCa-2 (pancreas), HL60 (leukemia), MCF7 (breast), MDA-MB-231 (breast) (T. Mosmann, J. Immunol. Meth., 1983, 65, 55-63). The cells were cultured at 37° C. in RMPI1640 medium supplemented with 10% fetal bovine serum, 50 IU/mL penicillin, and 50 μg/mL streptomycin in a 5% CO2 incubator. All cells were sub-cultured 3 times/week by trypsinisation. Viable cells were seeded and allowed to adhere for 12 hours before a test drug was added in 96-well plates at an initial density of 1.0×10^5 cells/mL. Tumor cell lines were separately exposed to various concentrations of the tested compounds followed by incubation at a temperature of 37° C. during 96 hours inside a medium of fresh RMPI 1640. Cells were subsequently incubated at 37° C. using MTT at 0.5 mg/mL during 4 hours. After removal of supernatant, formazan crystals were dissolved in isopropanol and the optical density was measured at 570 nm. CX-4945 was used as a positive control."}, "[3]": {"tested_on": "A375 (melanoma)", "test": "In vitro cytotoxic activity (MTT) assay, A375", "assay_type": "cell-based", "settings": "Homo sapiens, A-375; A375 (melanoma) cells, 96 hours exposure; read-out: Cytotoxicity activity IC50 (50% inhibition of cell proliferation)", "method": "as §1"}, "[4]": {"tested_on": "HCT116 (colon)", "test": "In vitro cytotoxic activity (MTT) assay, HCT116", "assay_type": "cell-based", "settings": "Homo sapiens, HCT-116; HCT116 (colon) cells, 96 hours exposure; read-out: Cytotoxicity activity IC50 (50% inhibition of cell proliferation)", "method": "as §1"}, "[5]": {"tested_on": "MCF7 (breast)", "test": "In vitro cytotoxic activity (MTT) assay, MCF7", "assay_type": "cell-based", "settings": "Homo sapiens; MCF7 (breast) cells, 96 hours exposure; read-out: Cytotoxicity activity IC50 (50% inhibition of cell proliferation)", "method": "as §1"}, "[6]": {"tested_on": "MDA-MB-231 (breast)", "test": "In vitro cytotoxic activity (MTT) assay, MDA-MB-231", "assay_type": "cell-based", "settings": "Homo sapiens; MDA-MB-231 (breast) cells, 96 hours exposure; read-out: Cytotoxicity activity IC50 (50% inhibition of cell proliferation)", "method": "as §1"}, "[7]": {"tested_on": "HL60 (leukemia)", "test": "In vitro cytotoxic activity (MTT) assay, HL60", "assay_type": "cell-based", "settings": "Homo sapiens, HL-60; HL60 (leukemia) cells, 96 hours exposure; read-out: Cytotoxicity activity IC50 (50% inhibition of cell proliferation)", "method": "as §1"}, "[8]": {"tested_on": "MIAPaCa-2 (pancreas)", "test": "In vitro cytotoxic activity (MTT) assay, MIAPaCa-2", "assay_type": "cell-based", "settings": "Homo sapiens, MIA PaCa-2; MIAPaCa-2 (pancreas) cells, 96 hours exposure; read-out: Cytotoxicity activity IC50 (50% inhibition of cell proliferation)", "method": "as §1"}, "[9]": {"tested_on": "PC3 (prostate)", "test": "In vitro cytotoxic activity (MTT) assay, PC3", "assay_type": "cell-based", "settings": "Homo sapiens, Prostate cell; PC3 (prostate) cells, 96 hours exposure; read-out: Cytotoxicity activity IC50 (50% inhibition of cell proliferation)", "method": "as §1"}}}
{"smiles": "Clc1cccc(Nc2nc3c(nn4cnccc34)c3ccncc23)c1", "note": "[Compound 1, N-(3-chlorophenyl)pyrimido[1′,6′: 1,5]pyrazolo[4,3-c][2,7]naphthyridin-5-amine]", "values": [{"measurement": "IC50", "setting": "[1]", "result": 0.03, "unit": "µM"}, {"measurement": "IC50", "setting": "[2]", "result": 2.3, "unit": "µM"}, {"measurement": "IC50", "setting": "[3]", "result": 3.6, "unit": "µM"}, {"measurement": "IC50", "setting": "[4]", "result": 1.2, "unit": "µM"}, {"measurement": "IC50", "setting": "[5]", "result": 5.3, "unit": "µM"}, {"measurement": "IC50", "setting": "[6]", "result": 4.5, "unit": "µM"}, {"measurement": "IC50", "setting": "[7]", "result": 4, "unit": "µM"}, {"measurement": "IC50", "setting": "[8]", "result": 1.1, "unit": "µM"}, {"measurement": "IC50", "setting": "[9]", "result": 1.4, "unit": "µM"}]}
